Experimental data taken from ChEMBL document CHEMBL1126232, “3-oxagranatane (3-oxa-9-azabicyclo[3.3.1]nonane) derivatives as highly potent serotonin 5-Ht3 receptor antagonists” (Bioorg Med Chem Lett, 1992).

system: not listed separately; test: pKa value was determined; format: physicochemical; settings: not given

| SMILES | pKa |
| --- | --- |
| CN1C2CCC1CC(NC(=O)N1CC(C)(C)c3ccccc31)C2 (stereo not drawn) | 9.4 |
| CN1C2COCC1CC(NC(=O)N1CC(C)(C)c3ccccc31)C2 (stereo not drawn) | 7.1 |
| CN1C2CCCC1CC(NC(=O)c1nn(C)c3ccccc13)C2 (stereo not drawn) [GRANISETRON] | 9.1 |

organism: Rattus norvegicus; test: animal or person; format: functional; settings: iv, read-out: ID50 (the source's name)
Description: Antagonistic activity towards serotonin 5-HT3 receptor was evaluated by inhibition of 5-HT evoked reflexes in rat on intravenous administration

| SMILES | ED50 [µg/kg] |
| --- | --- |
| COc1ccccc1NC(=O)NC1CC2COCC(C1)N2C (stereo not drawn) | 1.1 |
| CN1C2COCC1CC(NC(=O)c1nn(C)c3ccccc13)C2 (stereo not drawn) | 0.16 |
| CN1C2CCC1CC(NC(=O)N1CC(C)(C)c3ccccc31)C2 (stereo not drawn) | 0.7 |
| COc1ccccc1NC(=O)NC1CC2CCCC(C1)N2C (stereo not drawn) | 7.5 |
| CN1C2CCC1CC(NC(=O)N1CCc3ccccc31)C2 (stereo not drawn) | 1.4 |
| COc1cc(N)c(Cl)cc1C(=O)NC1CC2CCC(C1)N2C (stereo not drawn) | 0.8 |
| COc1cc(N)c(Cl)cc1C(=O)NC1CC2COCC(C1)N2C (stereo not drawn) | 0.09 |
| CN1C2COCC1CC(NC(=O)N1CC(C)(C)c3ccccc31)C2 (stereo not drawn) | 0.13 |
| COc1ccccc1NC(=O)NC1CC2CCC(C1)N2C (stereo not drawn) | 2.5 |
| COc1cc(N)c(Cl)cc1C(=O)NC1CC2CCCC(C1)N2C (stereo not drawn) | 0.4 |
